# From patent US20240041042A1, “1-(PYRIDYL)-5-AZINYLPYRAZOLE DERIVATIVES, AND THEIR USE FOR CONTROL OF UNDESIRED PLANT GROWTH” (Bayer Aktiengesellschaft, priority 2020, published 2024)
# Like-named read-outs stand apart in the source and are kept apart here.
# Key:
# Type in all cases: in vivo
# [1] = tested on: Matricaria inodora (MATIN); test: Post-emergence herbicidal action against MATIN; settings: dosage 320 g/ha
# Outline: (§1)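 Rates were 320 g/ha or below, applied as aqueous WP/EC spray with 0.5% additive (600 l/ha) onto one-leaf-stage plants. About 3 weeks later in the greenhouse, damage was scored visually against untreated plants on a 0–100% scale, where 100% means plants died.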
# Lolium rigidum (LOLRI) [2] = test: Pre-emergence herbicidal action against LOLRI; settings: dosage 320 g/ha
# Outline: (§2)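 Application rates ran to 320 g/ha or lower, with several dosages tested on the same weeds. The compound, as wettable powder or emulsion concentrate, is sprayed pre-emergence onto soil over sown seeds; greenhouse growth follows, and effect is rated visually after roughly 3 weeks.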
# [3] = tested on: Polygonum convolvulus (POLCO); test: Post-emergence herbicidal action against POLCO
# Outline: as §1
# [4] = tested on: Verconica persica (VERPE); test: Post-emergence herbicidal action against VERPE
# Outline: as §1
# [5] = tested on: Amaranthus retroflexus (AMARE); test: Pre-emergence herbicidal action against AMARE; settings: visual scoring after about 3 weeks vs untreated controls
# Outline: as §2
# [6] = tested on: Matricaria inodora (MATIN); test: Pre-emergence herbicidal action against MATIN; settings: dosage 320 g/ha
# Outline: as §2
# [7] = tested on: Echinochloa crus-galli (ECHCG); test: Post-emergence herbicidal action against ECHCG
# Outline: as §1
# [8] = tested on: Echinochloa crus-galli (ECHCG); test: Pre-emergence herbicidal action against ECHCG; settings: dosage 320 g/ha
# Outline: as §2
# Setaria viridis (SETVI) [9] = test: Pre-emergence herbicidal action against SETVI; settings: dosage 320 g/ha
# Outline: as §2
# Setaria viridis (SETVI) [10] = test: Post-emergence herbicidal action against SETVI
# Outline: as §1
# Zea mays (ZEAMX) [11] = settings: pre-emergence, crop plant compatibility, in comparison to untreated controls
# Outline: (§3)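 Crop injury rated visually in percent against untreated plants roughly 3 weeks after treatment (0% no effect, 100% plants dead). Compounds, as WP or EC with 0.5% additive in 600 l/ha water, were applied to the covering soil right after sowing; greenhouse growth. Suffixes a, b, c denote different dosages.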
# Oryza sativa (ORYSA) [12] = settings: pre-emergence, crop plant compatibility, in comparison to untreated controls
# Outline: as §3
# [13] = tested on: Pharbitis purpurea (PHBPU); test: Post-emergence herbicidal action against PHBPU
# Outline: as §1
# [14] = tested on: Pharbitis purpurea (PHBPU); test: Pre-emergence herbicidal action against PHBPU; settings: dosage 320 g/ha
# Outline: as §2
# Oryza sativa (ORYSA) [15] = settings: crop plant compatibility
# Outline: (§4)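 Effects were read visually as % versus untreated controls (0% = no effect, 100% = death) about 3 weeks post-treatment. Application was a post-emergence spray at the one-leaf stage of WP/EC formulations with 0.5% additive at 600 l/ha. Different dosages are denoted a, b and c.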
# Avena fatua (AVEFA) [16] = test: Post-emergence herbicidal action against AVEFA; settings: visual rating about 3 weeks after treatment
# Outline: as §1
# [17] = tested on: Amaranthus retroflexus (AMARE); test: Post-emergence herbicidal action against AMARE
# Outline: as §1
# Viola tricolor (VIOTR) [18] = test: Pre-emergence herbicidal action against VIOTR
# Outline: as §2
# [19] = tested on: Alopecurus myosuroides (ALOMY); test: Post-emergence herbicidal action against ALOMY; settings: visual rating about 3 weeks after treatment vs untreated controls (100% = plants have died, 0% = like control plants)
# Outline: as §1
# Viola tricolor (VIOTR) [20] = test: Post-emergence herbicidal action against VIOTR
# Outline: as §1
# [21] = tested on: Verconica persica (VERPE); test: Pre-emergence herbicidal action against VERPE
# Outline: as §2
# [22] = tested on: Triticum aestivum (TRZAS); settings: crop plant compatibility, effect vs untreated controls
# Outline: as §4
# Zea mays (ZEAMX) [23] = settings: for Post-emergence action against ZEAMX in %: crop plant compatibility, effect vs untreated controls
# Outline: as §4
# [24] = tested on: Polygonum convolvulus (POLCO); test: Pre-emergence herbicidal action against POLCO
# Outline: as §2
# [25] = tested on: Abutilon theophrasti (ABUTH); test: Post-emergence herbicidal action against ABUTH; settings: visual rating about 3 weeks after treatment vs untreated controls (100% = plants have died, 0% = like control plants)
# Outline: as §1
# [26] = tested on: Alopecurus myosuroides (ALOMY); test: Pre-emergence herbicidal action against ALOMY; settings: scored visually after about 3 weeks, 100% = plants have died
# Outline: as §2
# Avena fatua (AVEFA) [27] = test: Pre-emergence herbicidal action against AVEFA; settings: 320 g/ha, visual scoring after about 3 weeks vs untreated controls
# Outline: as §2
# Lolium rigidum (LOLRI) [28] = test: Post-emergence herbicidal action against LOLRI; settings: dosage 320 g/ha
# Outline: as §1
# [29] = 80 g/ha, effect in comparison to untreated controls
# [30] = 80 g/ha, visual rating about 3 weeks after treatment vs untreated controls (100% = plants have died, 0% = like control plants)
# [31] = 320 g/ha, visual rating about 3 weeks after treatment
Compound,Pre-emergence action against LOLRI in % (Lolium rigidum (LOLRI) [2]),Post-emergence action against POLCO in % ([3]; dosage 320 g/ha),"Post-emergence action against VERPE in % ([4]; 320 g/ha, VERPE)",Pre-emergence action against AMARE in % ([5]; 320 g/ha),Pre-emergence action against MATIN in % [6],Post-emergence action against ECHCG in % ([7]; dosage 80 g/ha),Post-emergence action against ECHCG in % ([7]; dosage 320 g/ha),Pre-emergence action against ECHCG in % [8],Pre-emergence action against SETVI in % (Setaria viridis (SETVI) [9]),Post-emergence action against SETVI in % (Setaria viridis (SETVI) [10]; dosage 320 g/ha),Pre-emergence action against ZEAMX in % (Zea mays (ZEAMX) [11]; 80 g/ha),Pre-emergence action against ORYSA in % (Oryza sativa (ORYSA) [12]; 80 g/ha),Post-emergence action against PHBPU in % ([13]; dosage 320 g/ha),Post-emergence action against ORYSA in % (Oryza sativa (ORYSA) [15]; [29]),Post-emergence action against AVEFA in % (Avena fatua (AVEFA) [16]; 320 g/ha),"Post-emergence action against AMARE in % [17, 30]","Pre-emergence action against VIOTR in % (Viola tricolor (VIOTR) [18]; 320 g/ha, Viola tricolor)",Pre-emergence action against VERPE in % ([21]; dosage 320 g/ha),Pre-emergence action against POLCO in % ([24]; dosage 320 g/ha),Pre-emergence action against AVEFA in % (Avena fatua (AVEFA) [27]),also measured
CCOC(=O)CSc1nn(-c2ccccn2)c(-c2cncc(F)c2)c1C1CC1 [Example I-156],80%,80%,80%,100%,80%,80%,80%,90%,90%,80%,0%,0%,90%,0%,90%,80%,90%,,,,"Post-emergence action against MATIN in % [1]: 80%; Pre-emergence action against ZEAMX in % (Zea mays (ZEAMX) [11]; 320 g/ha): 20%; Pre-emergence action against PHBPU in % [14]: 80%; Post-emergence action against AMARE in % [17, 31]: 90%; Pre-emergence action against VIOTR in % (Viola tricolor (VIOTR) [18]; dosage 80 g/ha): 80%; Post-emergence action against ALOMY in % ([19]; 320 g/ha): 80%"
CCOC(=O)COc1nn(-c2ncccc2C(F)(F)F)c(-c2cncc(F)c2)c1I [Example I-225],,,90%,100%,80%,80%,90%,80%,80%,80%,10%,20%,80%,10%,80%,,100%,90%,90%,90%,Post-emergence action against VIOTR in % (Viola tricolor (VIOTR) [20]; 80 g/ha): 80%; Post-emergence action against VIOTR in % (Viola tricolor (VIOTR) [20]; 320 g/ha): 80%; Pre-emergence action against VERPE in % ([21]; dosage 80 g/ha): 80%; Post-emergence action against VERPE in % ([4]; dosage 80 g/ha): 80%; Post-emergence action against PHBPU in % ([13]; dosage 80 g/ha): 80%; Post-emergence action against TRZAS in % ([22]; 80 g/ha): 20%; Post-emergence action against ZEAMX in % (Zea mays (ZEAMX) [23]; 80 g/ha): 20%; Pre-emergence action against VIOTR in % (Viola tricolor (VIOTR) [18]; dosage 80 g/ha): 90%; Post-emergence action against ABUTH in % ([25]; 320 g/ha): 80%; Post-emergence action against ALOMY in % ([19]; 320 g/ha): 90%; Pre-emergence action against ALOMY ([26]; 80 g/ha): 80%; Pre-emergence action against ALOMY ([26]; 320 g/ha): 90%
C=CCNC(=O)COc1nn(-c2ncccc2F)c(-c2ccc(F)nc2)c1Br [Example I-31],,80%,,90%,,,,90%,90%,,0%,0%,,0%,,,90%,90%,80%,80%,"Post-emergence action against VIOTR in % (Viola tricolor (VIOTR) [20]; 320 g/ha): 80%; Pre-emergence action against ORYSA in % (Oryza sativa (ORYSA) [12]; 320 g/ha): 0%; Post-emergence action against TRZAS in % ([22]; 80 g/ha): 10%; Post-emergence action against ZEAMX in % (Zea mays (ZEAMX) [23]; 80 g/ha): 0%; Post-emergence action against ZEAMX in % (Zea mays (ZEAMX) [23]; 320 g/ha): 0%; Post-emergence action against ORYSA in % (Oryza sativa (ORYSA) [15]; 320 g/ha, effect in comparison to untreated controls): 10%; Post-emergence action against AMARE in % [17, 31]: 80%"
COC(=O)COc1nn(-c2ncccc2Cl)c(-c2ccc(F)nc2)c1Br [Example I-28],100%,80%,80%,100%,90%,80%,90%,100%,100%,90%,10%,0%,80%,0%,100%,90%,100%,100%,90%,100%,"Post-emergence action against VIOTR in % (Viola tricolor (VIOTR) [20]; 80 g/ha): 80%; Post-emergence action against VIOTR in % (Viola tricolor (VIOTR) [20]; 320 g/ha): 80%; Post-emergence action against MATIN in % [1]: 80%; Post-emergence action against LOLRI in % (Lolium rigidum (LOLRI) [28]): 90%; Pre-emergence action against AMARE in % ([5]; 80 g/ha): 90%; Post-emergence action against SETVI in % (Setaria viridis (SETVI) [10]; dosage 80 g/ha): 80%; Post-emergence action against PHBPU in % ([13]; dosage 80 g/ha): 80%; Post-emergence action against ZEAMX in % (Zea mays (ZEAMX) [23]; 80 g/ha): 0%; Post-emergence action against AVEFA in % (Avena fatua (AVEFA) [16]; 80 g/ha): 100%; Pre-emergence action against POLCO in % ([24]; dosage 80 g/ha): 80%; Post-emergence action against AMARE in % [17, 31]: 90%; Pre-emergence action against VIOTR in % (Viola tricolor (VIOTR) [18]; dosage 80 g/ha): 100%; Post-emergence action against ABUTH in % ([25]; 80 g/ha): 80%; Post-emergence action against ABUTH in % ([25]; 320 g/ha): 90%; Post-emergence action against ALOMY in % ([19]; 80 g/ha): 100%; Post-emergence action against ALOMY in % ([19]; 320 g/ha): 100%; Pre-emergence action against ALOMY ([26]; 320 g/ha): 100%"
O=C(O)COc1nn(-c2ccccn2)c(-c2ccc(F)nc2)c1C(F)(F)F [Example I-99],100%,,,90%,90%,,,,90%,,0%,0%,,0%,,80%,90%,90%,90%,90%,"Post-emergence action against POLCO in % ([3]; dosage 80 g/ha): 90%; Post-emergence action against VERPE in % ([4]; dosage 80 g/ha): 80%; Post-emergence action against PHBPU in % ([13]; dosage 80 g/ha): 80%; Post-emergence action against TRZAS in % ([22]; 20 g/ha): 20%; Post-emergence action against ZEAMX in % (crop plant compatibility) (Zea mays (ZEAMX) [23]; 20 g/ha, ZEAMX, effect in comparison to untreated controls): 0%; Post-emergence action against ORYSA in % (Oryza sativa (ORYSA) [15]; 20 g/ha, effect vs untreated controls): 0%; Post-emergence action against ALOMY in % ([19]; 80 g/ha): 90%; Pre-emergence action against ALOMY ([26]; 80 g/ha): 80%; Pre-emergence action against ALOMY ([26]; 320 g/ha): 100%"
